Data: patent US4364926A, “Novel alkaline protease M3 method for the preparation thereof and dental caries-prophylactic composition containing the same” (Dainippon Pharmaceutical Co., Ltd., priority 1980, dated 1982)
Structures can show the parent of a compound that is named as a salt. Where two headings read alike, the source gives them in different places.

Test system: alkaline protease M3 from Streptomyces globisporus B-1829 strain (ATCC 21553)
Assay: Protease activity (casein hydrolysis) in the presence of additives
Type: biochemical
[1] = additive 10^-3 M, protease activity, no additive = 100

Compound | Relative activity (%) [1] [%] | Relative activity (%) | further results
O=C1O[C@H]([C@@H](O)CO)C(O)=C1O [L-Ascorbic acid] | 110 |  | 
O=C1CCC(=O)N1Br [NBS, N--Bromosuccinimide] | 85 |  | Relative activity (%) (additive 10^-4 M, protease activity, no additive = 100): 0%; Inhibition of protease activity (in words) (additive in an amount of 10^-4 M): completely inhibited
NC(N)=S [Thiourea] |  | 119 | 
O=C(O)CCC(=O)O [Succinic acid] | 113 |  | 
NNC(N)=O [Semicarbazide hydrochloride] |  | 116 | 
O=C(O)CI [Iodoacetic acid] |  | 118 | Effect by additive on activity (in words): substantially not inhibited; Inhibition of protease activity (in words): substantially not inhibited
